Measured values published in PubChem BioAssay (NCI).
Where “and” joins values, the source holds several entries; their conditions need not be identical. Equal entries are not always repeated.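 Values below derive from 48-hour exposures of cells grown in 96-well plates, with endpoints linearly interpolated between the two concentrations bracketing the appropriate inhibition level. GI50 is the concentration that inhibits growth by half. TGI marks complete inhibition of growth.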

Assays:
Assay in all cases: growth of human tumour cells (NCI), 48 h
HCT-15 colon = test system: HCT-15 colon
786-0 renal = test system: 786-0 renal
NCI-H226 lung = test system: NCI-H226 lung
HOP-92 NSCLC = test system: HOP-92 NSCLC
U251 CNS = test system: U251 CNS
UACC-62 melanoma = test system: UACC-62 melanoma
HL-60(TB) leukemia = test system: HL-60(TB) leukemia
NCI-H23 lung = test system: NCI-H23 lung
OVCAR-5 ovarian = test system: OVCAR-5 ovarian
MDA-MB-231 breast = test system: MDA-MB-231 breast

Compound | TGI (HCT-15 colon) [µM] | TGI (786-0 renal) | TGI (NCI-H226 lung) [µM] | TGI (HOP-92 NSCLC) [µM] | TGI (U251 CNS) | TGI (UACC-62 melanoma) | TGI (HL-60(TB) leukemia) [µM] | TGI (NCI-H23 lung) [µM] | TGI (OVCAR-5 ovarian) [µM] | GI50 (HCT-15 colon) [µM] | GI50 (786-0 renal) [µM] | GI50 (NCI-H226 lung) [µM] | GI50 (HOP-92 NSCLC) [µM] | GI50 (U251 CNS) [µM] | GI50 (UACC-62 melanoma) [µM] | GI50 (MDA-MB-231 breast) [µM] | TGI (MDA-MB-231 breast) [µM] | GI50 (HL-60(TB) leukemia) [µM] | GI50 (NCI-H23 lung) [µM] | GI50 (OVCAR-5 ovarian) [µM]
Cc1ccccc1C(=O)c1cc(O)ccc1O | > 100 | > 100 µM | > 100 | > 100 | > 100 µM | > 100 µM | > 100 | > 100 | > 100 |  |  |  |  |  |  |  |  |  |  | 
CC(C)(C)c1cc(C(P(=O)(O)O)P(=O)(O)O)cc(C(C)(C)C)c1O | > 100 | > 100 µM | > 100 | > 100 | > 100 µM | > 100 µM | > 100 | > 100 | > 100 |  |  |  |  |  |  |  |  |  |  | 
CN(C)CCC(/C=C/c1ccccc1)=N\Nc1ccccc1 | 2.43 | 11.1 µM |  |  | 4.58 µM | 3.26 µM | 4.28 | 13.9 | 3.97 |  |  |  |  |  |  |  |  |  |  | 
COC(=O)c1c2c(c(C)[n+]([O-])c1C)C(=O)C=C(NCc1ccc(F)cc1)C2=O | 1.86 | 4.39 µM | 4.13 | 3.83 | 2.62 µM | 1.16 µM | 1.92 | 3.41 | 2.88 | 0.341 | 1.76 | 1.77 | 1.72 | 0.999 | 0.175 | 0.354 | 4.46 | 0.454 | 0.733 | 1.39
Cc1nc(Nc2ccc(Cl)cc2)sc1C(=O)NNC(=S)NN | 45.5 | 30.2 µM | 38 | 43.2 | 32.3 µM | 33.7 µM | 50.2 | 33.4 | 31.4 |  |  |  |  |  |  |  |  |  |  | 
COc1cc(OC)c2c(=O)cc(-c3ccc(OC)c(OC)c3OC)oc2c1 | > 100 | > 100 µM | > 100 | > 100 |  | > 100 µM | > 100 | > 100 | > 100 |  |  |  |  |  |  |  |  |  |  | 
CSc1nc(SC)c2c(C#N)[nH]nc2n1 | > 100 | > 100 µM | > 100 | > 100 | > 100 µM | > 100 µM |  | > 100 |  |  |  |  |  |  |  |  |  |  |  | 
COC(=O)C(=Cc1cc(OC)c(OC)c(OC)c1-c1cc2c(cc1C1(C)OCCS1)OCO2)C(=O)OC (configuration not stated) | > 100 | > 100 µM | > 100 | 37.6 | > 100 µM | > 100 µM | > 100 | > 100 | > 100 |  |  |  |  |  |  |  |  |  |  | 
O=C(Nc1cccc(Cl)c1)C(=O)C(C(=O)c1ccc2ccccc2c1)C1OC(=O)c2ccccc21 (configuration not stated) |  | 22.9 µM | 11.5 | 54.3 | 21.2 µM | 40.6 µM | 40.7 | 24.8 | 59.6 |  |  |  |  |  |  |  |  |  |  | 
COC(=O)c1ccc2c(c1)C(=O)c1c-2n(CCCN=[N+]=[N-])c(=O)c2cc(OC)c(OC)cc12 | > 100 | > 100 µM | > 100 |  | > 100 µM | > 100 µM | > 100 | > 100 | > 100 | > 100 | > 100 | > 100 |  | > 100 | > 100 | > 100 | > 100 | 91.9 | 15.6 | > 100
O=[N+]([O-])c1ccc2occ3c2c1CCC3 | > 100 | > 100 µM | > 100 | > 100 | > 100 µM | > 100 µM | > 100 | > 100 | > 100 |  |  |  |  |  |  |  |  |  |  | 
C#CC1/C(=C\C(=O)OC)CCCC1O (configuration not stated) | > 100 | > 100 µM | > 100 | > 100 | > 100 µM | > 100 µM | > 100 | > 100 | > 100 |  |  |  |  |  |  |  |  |  |  | 
Cc1cc2c(=O)c3ccccc3[nH]c2c(C(N)=O)c1C | > 100 | > 100 µM | > 100 |  | > 100 µM | > 100 µM |  | > 100 | > 100 |  |  |  |  |  |  |  |  |  |  | 
CCOC(=O)c1ccc(/C(C)=N/NC(N)=S)cc1 | > 100 | > 100 µM |  | > 100 | > 100 µM | > 100 µM | > 100 | > 100 |  |  |  |  |  |  |  |  |  |  |  | 
NC(N)=N/N=C/c1c(Cl)cccc1Cl | > 100 | 43.7 µM | > 100 | 32.7 | 33.7 µM | 37.3 µM | 50.9 | > 100 | 79.8 | 26.1 | 18 | 24.1 | 6.66 | 16.3 | 18 |  |  | 21.8 | 36.5 | 22.4
Nc1ncn([C@@H]2O[C@H](CO)[C@@H](O)[C@H]2O)c(=O)n1 | 21.1 | 13.8 µM | 9.63 | 44.5 |  | 8.67 µM | 4.91 | 41.1 | > 100 | 1.6 | 0.687 | 1.39 | 3.06 |  | 0.658 | 1.61 | > 100 | 0.699 | 3.91 | 2.57
COc1c(O)c2c(=O)cc3c4c5c(cc(=O)c6c(O)c(OC)c(CC(C)O)c(c(c1CC(C)O)c24)c65)OCO3 (configuration not stated) | 4.13 | 11.1 µM | 6.66 | 5.47 | 4.08 µM | 3.79 µM | 5.1 | 3.1 | 9.13 |  |  |  |  |  |  |  |  |  |  | 
CC(C)C1=Cc2ccc3c(c2C(=O)C1=O)CCCC3(C)C | 4.42 | 10.5 µM | 35.9 | 9.79 | 27.2 µM | 15.2 µM | > 100 | 29.6 | 33.8 |  |  |  |  |  |  |  |  |  |  | 
COC(=O)C1CCCC2(C1)OCCO2 (configuration not stated) | > 100 | > 100 µM | > 100 | > 100 | > 100 µM | > 100 µM |  | > 100 | > 100 |  |  |  |  |  |  |  |  |  |  | 
O=C1CCC2(c3ccc(Cl)cc3)Nc3cc(Cl)ccc3N12 (configuration not stated) | 25.3 | 21.8 µM |  |  | 24.3 µM | 21.2 µM | 12 | 23.2 |  |  |  |  |  |  |  |  |  |  |  | 
N#C/C(=C\c1ccc2ccccc2c1)C(=O)c1ccccc1 | > 100 | > 85.5 µM | > 100 |  | 32.9 µM | > 78.5 µM | 71.9 | > 74.4 | > 100 |  |  |  |  |  |  |  |  |  |  | 
CCOC(=O)N[C@H]1CCc2cc(OC)c(OC)c(OC)c2-c2ccc(SC)c(=O)cc21 | > 100 | 45.7 µM and > 100 µM | 3.29 | > 100 | 61.3 µM and > 100 µM | 70.7 µM and > 100 µM | < 0.01 |  | > 100 |  |  |  | 0.0198 |  |  |  |  |  |  | < 0.01
